The kinase profiling compilation of Christmann-Franck et al. (2016)

Columns and labels:
Test in all cases: KINOMEscan competition binding
Settings in all cases: compound 10.0 µM
BMPR1B (human) = BMPR1B (human) (UniProt O00238)
CDK7 (human) = CDK7 (human) (UniProt P50613)
AURKB (human) = AURKB (human) (UniProt Q96GD4)
SRPK3 (human) = SRPK3 (human) (UniProt Q9UPE1)
PIM2 (human) = PIM2 (human) (UniProt Q9P1W9)
GAK (human) = GAK (human) (UniProt O14976)
DYRK1B (human) = DYRK1B (human) (UniProt Q9Y463)
BMP2K (human) = BMP2K (human) (UniProt Q9NSY1)
SRPK2 (human) = SRPK2 (human) (UniProt P78362)
TNIK (human) = TNIK (human) (UniProt Q9UKE5)
[1] = system: KIT (human), P10721 [V559D/V654A]
RPS6KA2 KD2 (human) = RPS6KA2 KD2 (human) (UniProt Q15349)
CSNK1E (human) = CSNK1E (human) (UniProt P49674)
CSNK2A2 (human) = CSNK2A2 (human) (UniProt P19784)
Sequence of CSNK2A2 (human) (P19784 whole entry, looked up): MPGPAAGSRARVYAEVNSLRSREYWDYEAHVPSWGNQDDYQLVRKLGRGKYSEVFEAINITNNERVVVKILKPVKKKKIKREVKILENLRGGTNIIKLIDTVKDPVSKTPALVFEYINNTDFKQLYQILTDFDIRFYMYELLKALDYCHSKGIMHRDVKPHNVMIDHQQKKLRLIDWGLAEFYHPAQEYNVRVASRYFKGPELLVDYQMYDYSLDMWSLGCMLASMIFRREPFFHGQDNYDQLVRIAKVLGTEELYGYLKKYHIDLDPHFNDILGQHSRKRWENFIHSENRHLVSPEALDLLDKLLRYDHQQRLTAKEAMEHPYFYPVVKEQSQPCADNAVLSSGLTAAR

PIK3CG (human) = PIK3CG (human) (UniProt P48736)
RPS6KA5 KD2 (human) = RPS6KA5 KD2 (human) (UniProt O75582)
Sequence of RPS6KA5 KD2 (human) (O75582 whole entry, looked up): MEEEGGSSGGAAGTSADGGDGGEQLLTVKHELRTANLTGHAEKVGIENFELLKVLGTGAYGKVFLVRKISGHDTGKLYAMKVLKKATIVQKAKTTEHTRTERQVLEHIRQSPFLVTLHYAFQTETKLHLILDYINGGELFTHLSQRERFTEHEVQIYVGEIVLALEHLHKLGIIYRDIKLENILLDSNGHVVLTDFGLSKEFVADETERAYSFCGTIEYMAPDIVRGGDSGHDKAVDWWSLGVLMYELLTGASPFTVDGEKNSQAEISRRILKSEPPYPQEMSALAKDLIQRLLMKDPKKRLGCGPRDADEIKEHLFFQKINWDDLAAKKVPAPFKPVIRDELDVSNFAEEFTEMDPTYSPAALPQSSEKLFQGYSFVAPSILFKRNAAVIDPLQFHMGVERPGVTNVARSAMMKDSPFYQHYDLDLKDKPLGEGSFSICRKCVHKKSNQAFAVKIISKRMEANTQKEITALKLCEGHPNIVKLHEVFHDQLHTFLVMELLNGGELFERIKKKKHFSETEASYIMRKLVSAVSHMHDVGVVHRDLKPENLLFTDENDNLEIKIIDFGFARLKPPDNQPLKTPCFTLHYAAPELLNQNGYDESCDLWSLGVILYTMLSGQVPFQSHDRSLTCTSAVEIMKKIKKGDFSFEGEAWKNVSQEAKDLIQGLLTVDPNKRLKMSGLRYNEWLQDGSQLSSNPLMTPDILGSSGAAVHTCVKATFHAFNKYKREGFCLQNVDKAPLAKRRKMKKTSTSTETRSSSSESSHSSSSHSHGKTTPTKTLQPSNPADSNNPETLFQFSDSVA

PIP4K2B (human) = PIP4K2B (human) (UniProt P78356)
DAPK2 (human) = DAPK2 (human) (UniProt Q9UIK4)
[2] = system: EGFR (human), P00533 [747-751 del / S ins]
[3] = system: KIT (human), P10721 [D816V]
Sequence of KIT (human), P10721 [D816V] (P10721 whole entry D816V, looked up): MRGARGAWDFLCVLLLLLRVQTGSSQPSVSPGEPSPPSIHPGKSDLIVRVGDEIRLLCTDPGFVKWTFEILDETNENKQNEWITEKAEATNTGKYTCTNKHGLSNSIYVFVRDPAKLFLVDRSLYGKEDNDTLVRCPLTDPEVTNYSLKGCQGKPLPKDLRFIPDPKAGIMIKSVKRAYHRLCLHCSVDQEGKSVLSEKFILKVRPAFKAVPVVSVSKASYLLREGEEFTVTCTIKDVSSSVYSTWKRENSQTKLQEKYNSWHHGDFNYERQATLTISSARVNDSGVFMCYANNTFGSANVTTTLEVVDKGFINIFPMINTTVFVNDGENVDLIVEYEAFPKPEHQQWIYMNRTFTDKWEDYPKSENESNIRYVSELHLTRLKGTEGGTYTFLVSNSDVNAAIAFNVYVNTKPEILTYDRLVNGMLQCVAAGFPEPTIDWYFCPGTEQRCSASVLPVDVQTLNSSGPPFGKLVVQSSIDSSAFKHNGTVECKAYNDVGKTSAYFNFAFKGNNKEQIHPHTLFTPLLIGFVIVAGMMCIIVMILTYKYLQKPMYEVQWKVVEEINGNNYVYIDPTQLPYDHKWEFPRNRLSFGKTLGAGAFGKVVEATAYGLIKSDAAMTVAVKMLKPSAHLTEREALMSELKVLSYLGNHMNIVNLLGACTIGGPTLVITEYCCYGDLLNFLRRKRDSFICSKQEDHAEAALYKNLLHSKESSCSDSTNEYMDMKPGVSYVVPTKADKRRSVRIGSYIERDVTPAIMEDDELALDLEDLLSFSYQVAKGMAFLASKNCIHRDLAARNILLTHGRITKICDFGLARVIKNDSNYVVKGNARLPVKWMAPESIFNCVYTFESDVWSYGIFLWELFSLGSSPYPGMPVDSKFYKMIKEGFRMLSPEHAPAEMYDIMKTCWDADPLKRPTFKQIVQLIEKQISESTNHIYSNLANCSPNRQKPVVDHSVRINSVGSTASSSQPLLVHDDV

[4] = system: EGFR (human), P00533 [G719S]
TLK1 (human) = TLK1 (human) (UniProt Q9UKI8)
STK24 (human) = STK24 (human) (UniProt Q9Y6E0)
MINK1 (human) = MINK1 (human) (UniProt Q8N4C8)
MAP2K4 (human) = MAP2K4 (human) (UniProt P45985)
STK17B (human) = STK17B (human) (UniProt O94768)
MAP4K4 (human) = MAP4K4 (human) (UniProt O95819)
TTK (human) = TTK (human) (UniProt P33981)
KIT (human) = KIT (human) (UniProt P10721)
Sequence of KIT (human) (P10721 whole entry, looked up): as the sequence (P10721 whole entry D816V, looked up) above, with V816D counted along it

RIOK1 (human) = RIOK1 (human) (UniProt Q9BRS2)
Sequence of RIOK1 (human) (Q9BRS2 whole entry, looked up): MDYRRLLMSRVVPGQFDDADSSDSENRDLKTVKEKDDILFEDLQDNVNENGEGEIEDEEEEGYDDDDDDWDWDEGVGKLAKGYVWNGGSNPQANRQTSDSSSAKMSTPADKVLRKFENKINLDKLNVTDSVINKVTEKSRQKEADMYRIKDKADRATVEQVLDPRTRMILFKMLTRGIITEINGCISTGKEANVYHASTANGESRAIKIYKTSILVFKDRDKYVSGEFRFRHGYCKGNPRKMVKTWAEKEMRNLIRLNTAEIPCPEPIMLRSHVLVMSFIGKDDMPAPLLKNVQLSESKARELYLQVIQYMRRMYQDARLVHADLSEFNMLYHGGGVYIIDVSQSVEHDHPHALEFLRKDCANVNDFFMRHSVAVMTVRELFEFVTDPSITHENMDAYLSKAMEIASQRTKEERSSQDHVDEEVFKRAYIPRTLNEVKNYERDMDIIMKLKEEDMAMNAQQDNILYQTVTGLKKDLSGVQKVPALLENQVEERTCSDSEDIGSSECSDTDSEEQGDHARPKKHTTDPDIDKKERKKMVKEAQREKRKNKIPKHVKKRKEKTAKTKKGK

TAOK1 (human) = TAOK1 (human) (UniProt Q7L7X3)
CSNK1G1 (human) = CSNK1G1 (human) (UniProt Q9HCP0)
CSNK2A1 (human) = CSNK2A1 (human) (UniProt P68400)
Sequence of CSNK2A1 (human) (P68400 whole entry, looked up): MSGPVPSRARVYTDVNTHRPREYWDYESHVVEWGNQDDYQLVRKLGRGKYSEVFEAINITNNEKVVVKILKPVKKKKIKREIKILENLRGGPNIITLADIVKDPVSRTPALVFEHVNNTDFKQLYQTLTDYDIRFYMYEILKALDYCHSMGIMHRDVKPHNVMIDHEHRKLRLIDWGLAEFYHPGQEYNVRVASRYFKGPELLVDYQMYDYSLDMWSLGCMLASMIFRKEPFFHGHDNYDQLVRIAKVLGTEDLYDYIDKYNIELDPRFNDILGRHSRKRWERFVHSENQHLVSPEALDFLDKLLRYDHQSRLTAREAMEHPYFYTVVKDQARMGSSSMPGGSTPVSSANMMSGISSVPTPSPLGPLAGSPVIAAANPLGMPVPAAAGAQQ

PHKG2 (human) = PHKG2 (human) (UniProt P15735)
[5] = system: FLT3 (human), P36888 [N841I]
PIM3 (human) = PIM3 (human) (UniProt Q86V86)
ACVR2A (human) = ACVR2A (human) (UniProt P27037)
DAPK3 (human) = DAPK3 (human) (UniProt O43293)
Sequence of DAPK3 (human) (O43293 whole entry, looked up): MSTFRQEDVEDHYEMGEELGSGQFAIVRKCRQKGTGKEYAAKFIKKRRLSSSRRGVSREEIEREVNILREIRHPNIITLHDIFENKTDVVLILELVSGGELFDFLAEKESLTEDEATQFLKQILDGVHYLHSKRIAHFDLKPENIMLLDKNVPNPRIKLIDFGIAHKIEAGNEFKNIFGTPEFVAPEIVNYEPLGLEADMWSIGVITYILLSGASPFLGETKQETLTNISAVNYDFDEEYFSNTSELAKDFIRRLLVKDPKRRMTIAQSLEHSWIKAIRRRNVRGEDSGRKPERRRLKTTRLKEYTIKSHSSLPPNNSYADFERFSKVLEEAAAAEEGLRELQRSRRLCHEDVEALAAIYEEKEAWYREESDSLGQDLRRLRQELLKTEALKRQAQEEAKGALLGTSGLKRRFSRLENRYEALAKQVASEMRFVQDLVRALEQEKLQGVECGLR

RIOK2 (human) = RIOK2 (human) (UniProt Q9BVS4)
MYLK (human) = MYLK (human) (UniProt Q15746)
MAPK15 (human) = MAPK15 (human) (UniProt Q8TD08)
[6] = system: KIT (human), P10721 [V559D]

SMILES: COc1cc(N2CCN(C)CC2)ccc1Nc1ncc2c(n1)Nc1ccccc1NC2=O
- kinase still bound, per cent of control (BMPR1B (human)): 19%
- kinase still bound, per cent of control (CDK7 (human)): 100%
- kinase still bound, per cent of control (AURKB (human)): 59%
- kinase still bound, per cent of control (SRPK3 (human)): 76%
- kinase still bound, per cent of control (PIM2 (human)): 100%
- kinase still bound, per cent of control (GAK (human)): 5.8%
- kinase still bound, per cent of control (DYRK1B (human)): 79%
- kinase still bound, per cent of control (BMP2K (human)): 72%
- kinase still bound, per cent of control (SRPK2 (human)): 93%
- kinase still bound, per cent of control (TNIK (human)): 82%
- kinase still bound, per cent of control [1]: 88%
- kinase still bound, per cent of control (RPS6KA2 KD2 (human)): 80%
- kinase still bound, per cent of control (CSNK1E (human)): 59%
- kinase still bound, per cent of control (CSNK2A2 (human)): 100%
- kinase still bound, per cent of control (PIK3CG (human)): 100%
- kinase still bound, per cent of control (RPS6KA5 KD2 (human)): 92%
- kinase still bound, per cent of control (PIP4K2B (human)): 74%
- kinase still bound, per cent of control (DAPK2 (human)): 95%
- kinase still bound, per cent of control [2]: 62%
- kinase still bound, per cent of control [3]: 46%
- kinase still bound, per cent of control [4]: 48%
- kinase still bound, per cent of control (TLK1 (human)): 70%
- kinase still bound, per cent of control (STK24 (human)): 95%
- kinase still bound, per cent of control (MINK1 (human)): 71%
- kinase still bound, per cent of control (MAP2K4 (human)): 93%
- kinase still bound, per cent of control (STK17B (human)): 93%
- kinase still bound, per cent of control (MAP4K4 (human)): 86%
- kinase still bound, per cent of control (TTK (human)): 86%
- kinase still bound, per cent of control (KIT (human)): 48%
- kinase still bound, per cent of control (RIOK1 (human)): 67%
- kinase still bound, per cent of control (TAOK1 (human)): 2.9%
- kinase still bound, per cent of control (CSNK1G1 (human)): 100%
- kinase still bound, per cent of control (CSNK2A1 (human)): 76%
- kinase still bound, per cent of control (PHKG2 (human)): 6.8%
- kinase still bound, per cent of control [5]: 25%
- kinase still bound, per cent of control (PIM3 (human)): 75%
- kinase still bound, per cent of control (ACVR2A (human)): 34%
- kinase still bound, per cent of control (DAPK3 (human)): 90%
- kinase still bound, per cent of control (RIOK2 (human)): 43%
- kinase still bound, per cent of control (MYLK (human)): 100%
- kinase still bound, per cent of control (MAPK15 (human)): 69%
- kinase still bound, per cent of control [6]: 55%

SMILES: COc1cc(N2CCN(C)CC2)ccc1Nc1ncc2c(n1)N(C)c1ccccc1N(C)C2=O
- kinase still bound, per cent of control (BMPR1B (human)): 100%
- kinase still bound, per cent of control (CDK7 (human)): 100%
- kinase still bound, per cent of control (AURKB (human)): 100%
- kinase still bound, per cent of control (SRPK3 (human)): 68%
- kinase still bound, per cent of control (PIM2 (human)): 100%
- kinase still bound, per cent of control (GAK (human)): 45%
- kinase still bound, per cent of control (DYRK1B (human)): 92%
- kinase still bound, per cent of control (BMP2K (human)): 100%
- kinase still bound, per cent of control (SRPK2 (human)): 100%
- kinase still bound, per cent of control (TNIK (human)): 90%
- kinase still bound, per cent of control [1]: 100%
- kinase still bound, per cent of control (RPS6KA2 KD2 (human)): 97%
- kinase still bound, per cent of control (CSNK1E (human)): 56%
- kinase still bound, per cent of control (CSNK2A2 (human)): 88%
- kinase still bound, per cent of control (PIK3CG (human)): 100%
- kinase still bound, per cent of control (RPS6KA5 KD2 (human)): 93%
- kinase still bound, per cent of control (PIP4K2B (human)): 91%
- kinase still bound, per cent of control (DAPK2 (human)): 84%
- kinase still bound, per cent of control [2]: 92%
- kinase still bound, per cent of control [3]: 100%
- kinase still bound, per cent of control [4]: 90%
- kinase still bound, per cent of control (TLK1 (human)): 97%
- kinase still bound, per cent of control (STK24 (human)): 100%
- kinase still bound, per cent of control (MINK1 (human)): 100%
- kinase still bound, per cent of control (MAP2K4 (human)): 98%
- kinase still bound, per cent of control (STK17B (human)): 100%
- kinase still bound, per cent of control (MAP4K4 (human)): 85%
- kinase still bound, per cent of control (TTK (human)): 95%
- kinase still bound, per cent of control (KIT (human)): 100%
- kinase still bound, per cent of control (RIOK1 (human)): 78%
- kinase still bound, per cent of control (TAOK1 (human)): 100%
- kinase still bound, per cent of control (CSNK1G1 (human)): 100%
- kinase still bound, per cent of control (CSNK2A1 (human)): 88%
- kinase still bound, per cent of control (PHKG2 (human)): 15%
- kinase still bound, per cent of control [5]: 92%
- kinase still bound, per cent of control (PIM3 (human)): 84%
- kinase still bound, per cent of control (ACVR2A (human)): 92%
- kinase still bound, per cent of control (DAPK3 (human)): 98%
- kinase still bound, per cent of control (RIOK2 (human)): 50%
- kinase still bound, per cent of control (MYLK (human)): 97%
- kinase still bound, per cent of control (MAPK15 (human)): 100%
- kinase still bound, per cent of control [6]: 95%
